In US11634479B2, “Immunoassay for collagen type VI” (Nordic Bioscience A/S, priority 2015, dated 2023):

Key:
[1] = BALLETS phase III clinical study: adverse event profile in subgroups of baseline endotrophin; type: in vivo, subjects with type 2 diabetes on stable insulin therapy
From the text: Testing Strategies) study was a phase III, randomized, double-blind, parallel-group, placebo and active comparator-controlled clinical study to determine the efficacy and safety of six months' treatment of balaglitazone or pioglitazone in subjects with type 2 diabetes on stable insulin therapy. The baseline demographics, CONSORT diagram as well as efficacy and safety data have previously been published (Henriksen, 2011). In the current study we used the per protocol population of the BALLETS study, which consisted of 299 subjects spread evenly over four groups (placebo, two doses of balaglitazone, and one dose of piogliatazone) as previously described (Henriksen, 2011), all with baseline and up to six follow-up parameters related to blood sugar control and Pro-C6 determinations under therapy.
The analysis included subjects from the per protocol population having a baseline measurement of serum Pro-C6. Subjects were grouped into one of three tertiles based on their baseline Pro-C6 value. Tertile 1 included subjects with baseline serum Pro-C6 of 6.2 ng/mL or below; tertile 2 had baseline serum Pro-C6 of 6.3 ng/mL to 7.7 ng/mL, and tertile 3 had baseline serum Pro-C6 of 7.8 ng/mL or above. Baseline characteristics between the three subgroups were compared by analysis of variance (ANOVA), and comparison of the proportion of genders in each tertile was compared by Fisher's exact test.
Lower leg edema, when measured as volume increase due to water displacement, was correlated with baseline serum endotrophin tertiles. Glitazone therapy led to increased lower leg volume in the lower and middle tertile, while there were no differences between treatment and placebo groups in the upper tertile (FIG. 12A-12C). There were no significant differences in the occurrence of AEs or SAEs in the three different treatment groups when stratified according to endotrophin levels. The difference between the SAEs in Table 10 and the lower leg oedema reported in FIGS. 12A-12C is a function of the lower leg volume being a quantitative measure and the reporting of oedemas being a patient reported output (FIGS. 10A-10C).

[2] = test system: around 10 kD bands in human serum and amniotic fluid; test: Western blot of human serum and amniotic fluid; type: binding; conditions: FIG. 2B
Experimental: Native reactivity of the chosen antibody was assessed using human serum pool and human amniotic fluid pool.

[3] = Tertile 1 baseline endotrophin, Balaglitazone 10 mg, n = 27
[4] = Tertile 1 baseline endotrophin, Balaglitazone 20 mg, n = 22
[5] = Tertile 2 baseline endotrophin, Balaglitazone 10 mg, n = 21
[6] = Tertile 2 baseline endotrophin, Balaglitazone 20 mg, n = 21
[7] = Tertile 3 baseline endotrophin, Balaglitazone 10 mg, n = 25
[8] = Tertile 3 baseline endotrophin, Balaglitazone 20 mg, n = 25
[9] = Tertile 1 baseline endotrophin, Pioglitazone 45 mg, n = 24
[10] = Tertile 2 baseline endotrophin, Pioglitazone 45 mg, n = 29
[11] = Tertile 3 baseline endotrophin, Pioglitazone 45 mg, n = 31

Sequence of around 10 kD bands in human serum and amniotic fluid (P12111 3112-3177 limits assumed): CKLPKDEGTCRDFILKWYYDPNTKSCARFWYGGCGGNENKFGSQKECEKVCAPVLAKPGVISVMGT

Cn1c(COc2ccc(CC3SC(=O)NC3=O)cc2)nc2ccccc2c1=O (stereo not drawn) [Balaglitazone, balaglitazone]
All AEs, E [1, 3]: 38 | All AEs, N (%) [1, 3]: 20 (74%) N (%) | Serious AEs, E [1, 3]: 1 | Serious AEs, N (%) [1, 3]: 1 (4%) N (%) | Severe AEs: Cardiac ischaemia, E [1, 3]: 0 | Severe AEs: Cardiac ischaemia, N (%) [1, 3]: 0 (0%) N (%) | Severe AEs: Heart failure, E [1, 3]: 0 | Severe AEs: Heart failure, N (%) [1, 3]: 0 (0%) N (%) | Severe AEs: Peripheral oedema, E [1, 3]: 2 | Severe AEs: Peripheral oedema, N (%) [1, 3]: 2 (7%) N (%) | Total severe AEs, E [1, 3]: 2 | Total severe AEs, N (%) [1, 3]: 2 (7%) N (%) | All AEs, E [1, 4]: 33 | All AEs, N (%) [1, 4]: 17 (77%) N (%) | Serious AEs, E [1, 4]: 1 | Serious AEs, N (%) [1, 4]: 1 (5%) N (%) | Severe AEs: Cardiac ischaemia, E [1, 4]: 2 | Severe AEs: Cardiac ischaemia, N (%) [1, 4]: 2 (9%) N (%) | Severe AEs: Heart failure, E [1, 4]: 0 | Severe AEs: Heart failure, N (%) [1, 4]: 0 (0%) N (%) | Severe AEs: Peripheral oedema, E [1, 4]: 2 | Severe AEs: Peripheral oedema, N (%) [1, 4]: 2 (9%) N (%) | Total severe AEs, E [1, 4]: 4 | Total severe AEs, N (%) [1, 4]: 4 (18%) N (%) | All AEs, E [1, 5]: 35 | All AEs, N (%) [1, 5]: 17 (81%) N (%) | Serious AEs, E [1, 5]: 1 | Serious AEs, N (%) [1, 5]: 1 (5%) N (%) | Severe AEs: Cardiac ischaemia, E [1, 5]: 1 | Severe AEs: Cardiac ischaemia, N (%) [1, 5]: 1 (5%) N (%) | Severe AEs: Heart failure, E [1, 5]: 0 | Severe AEs: Heart failure, N (%) [1, 5]: 0 (0%) N (%) | Severe AEs: Peripheral oedema, E [1, 5]: 3 | Severe AEs: Peripheral oedema, N (%) [1, 5]: 3 (14%) N (%) | Total severe AEs, E [1, 5]: 4 | Total severe AEs, N (%) [1, 5]: 4 (19%) N (%) | All AEs, E [1, 6]: 36 | All AEs, N (%) [1, 6]: 15 (71%) N (%) | Serious AEs, E [1, 6]: 0 | Serious AEs, N (%) [1, 6]: 0 (0%) N (%) | Severe AEs: Cardiac ischaemia, E [1, 6]: 0 | Severe AEs: Cardiac ischaemia, N (%) [1, 6]: 0 (0%) N (%) | Severe AEs: Heart failure, E [1, 6]: 0 | Severe AEs: Heart failure, N (%) [1, 6]: 0 (0%) N (%) | Severe AEs: Peripheral oedema, E [1, 6]: 2 | Severe AEs: Peripheral oedema, N (%) [1, 6]: 2 (10%) N (%) | Total severe AEs, E [1, 6]: 2 | Total severe AEs, N (%) [1, 6]: 2 (10%) N (%) | All AEs, E [1, 7]: 55 | All AEs, N (%) [1, 7]: 20 (60%) N (%) | Serious AEs, E [1, 7]: 1 | Serious AEs, N (%) [1, 7]: 1 (4%) N (%) | Severe AEs: Cardiac ischaemia, E [1, 7]: 0 | Severe AEs: Cardiac ischaemia, N (%) [1, 7]: 0 (0%) N (%) | Severe AEs: Heart failure, E [1, 7]: 0 | Severe AEs: Heart failure, N (%) [1, 7]: 0 (0%) N (%) | Severe AEs: Peripheral oedema, E [1, 7]: 1 | Severe AEs: Peripheral oedema, N (%) [1, 7]: 1 (8%) N (%) | Total severe AEs, E [1, 7]: 1 | Total severe AEs, N (%) [1, 7]: 1 (8%) N (%) | All AEs, E [1, 8]: 43 | All AEs, N (%) [1, 8]: 20 (60%) N (%) | Serious AEs, E [1, 8]: 6 | Serious AEs, N (%) [1, 8]: 6 (24%) N (%) | Severe AEs: Cardiac ischaemia, E [1, 8]: 1 | Severe AEs: Cardiac ischaemia, N (%) [1, 8]: 1 (4%) N (%) | Severe AEs: Heart failure, E [1, 8]: 0 | Severe AEs: Heart failure, N (%) [1, 8]: 0 (0%) N (%) | Severe AEs: Peripheral oedema, E [1, 8]: 1 | Severe AEs: Peripheral oedema, N (%) [1, 8]: 1 (4%) N (%) | Total severe AEs, E [1, 8]: 2 | Total severe AEs, N (%) [1, 8]: 2 (8%) N (%)

CCc1ccc(CCOc2ccc(CC3SC(=O)NC3=O)cc2)nc1 (stereo not drawn) [Pioglitazone, pioglitazone]
All AEs, E [1, 9]: 45 | All AEs, N (%) [1, 9]: 19 (79%) N (%) | Serious AEs, E [1, 9]: 1 | Serious AEs, N (%) [1, 9]: 1 (4%) N (%) | Severe AEs: Cardiac ischaemia, E [1, 9]: 0 | Severe AEs: Cardiac ischaemia, N (%) [1, 9]: 0 (0%) N (%) | Severe AEs: Heart failure, E [1, 9]: 0 | Severe AEs: Heart failure, N (%) [1, 9]: 0 (0%) N (%) | Severe AEs: Peripheral oedema, E [1, 9]: 5 | Severe AEs: Peripheral oedema, N (%) [1, 9]: 5 (21%) N (%) | Total severe AEs, E [1, 9]: 5 | Total severe AEs, N (%) [1, 9]: 5 (21%) N (%) | All AEs, N (%) [1, 10]: 17 (59%)^ N (%) | Serious AEs, E [1, 10]: 3 | Serious AEs, N (%) [1, 10]: 2 (6%) N (%) | Severe AEs: Cardiac ischaemia, E [1, 10]: 1 | Severe AEs: Cardiac ischaemia, N (%) [1, 10]: 1 (3%) N (%) | Severe AEs: Heart failure, E [1, 10]: 0 | Severe AEs: Heart failure, N (%) [1, 10]: 0 (0%) N (%) | Severe AEs: Peripheral oedema, E [1, 10]: 5 | Severe AEs: Peripheral oedema, N (%) [1, 10]: 5 (17%) N (%) | Total severe AEs, E [1, 10]: 6 | Total severe AEs, N (%) [1, 10]: 5 (17%) N (%) | All AEs, N (%) [1, 11]: 25 (81%)^ N (%) | Serious AEs, E [1, 11]: 6 | Serious AEs, N (%) [1, 11]: 4 (13%) N (%) | Severe AEs: Cardiac ischaemia, E [1, 11]: 4 | Severe AEs: Cardiac ischaemia, N (%) [1, 11]: 3 (10%) N (%) | Severe AEs: Heart failure, E [1, 11]: 1 | Severe AEs: Heart failure, N (%) [1, 11]: 1 (3%) N (%) | Severe AEs: Peripheral oedema, E [1, 11]: 2 | Severe AEs: Peripheral oedema, N (%) [1, 11]: 2 (6%) N (%) | Total severe AEs, E [1, 11]: 7 | Total severe AEs, N (%) [1, 11]: 6 (19%) N (%)

B1: 10A3: mouse IgG1/kappa monoclonal antibody against the last 10 amino acids of C-terminal COL6A3 (…); heavy chain SEQ ID NO:5, light chain SEQ ID NO:9 (antibody)
heavy: EVQLQQSGPVMVKPGTSVKTSCKASGYTFTDFNMNWVKQSHGKSLEWIGAINPHNGATSYNQKFSGKATLTVDKSSSTAYMELNSLTSDDSAVYYCARWGNGKNSWGQGTTLTVSSAKTTPPSVYPLAPGSAAQTNSMVTLGCLVKGYFPEPVTVTWNSGSLSSGVHTFPAVLQSDLYTLSSSVTVPSSTWPSETVTCNVAHPASSTKVDKKIVPRDCGCKPCICTVPEVSSVFIFPPKPKDVLTITLTPKVTCVVVDISKDDPEVQFSWFVDDVEVHTAQTQPREEQFNSTFRSVSELPIMHQDWLNGKEFKCRVNSAAFPAPIEKTISKTKGRPKAPQVYTIPPPKEQMAKDKVSLTCMITDFFPEDITVEWQWNGQPAENYKNTQPIMDTDGSYFVYSKLNVQKSNWEAGNTFTCSVLHEGLHNHHTEKSLSHSPGK
light: DVVMTQTPLSLPVNLGDQASISCRSSQRIVHSNGITFLEWYLQKPGQSPKLLIYRVSNRFSGVPDRFSGSGSGTDFTLKISRVEAEDLGLYYCFQGSHVPLTFGAGTRLELKRADAAPTVSIFPPSSEQLTSGGASVVCFLNNFYPKDINVKWKIDGSERQNGVLNSWTDQDSKDSTYSMSSTLTLTKDEYERHNSYTCEATHKTSTSPIVKSFNRNEC
modifications: Heavy chain sequence of mouse IgG1 isotype of monoclonal antibody 10A3; Light chain sequence of mouse Kappa isotype of monoclonal antibody 10A3
western blot signal in the presence of the standard peptide [2]: completely blocked | bands recognized in western blot ([2]; human serum and amniotic fluid): around 10 kD
